Consider 37 molecules from US11472798B2 (Mission Therapeutics Limited, priority 2014, dated 2022).

This assay deals with T1, UCHL1 (Homo sapiens, UniProt P09936).
T1 construct: made in house; host or cells: HEK293T
T1 sequence (P09936 1-223): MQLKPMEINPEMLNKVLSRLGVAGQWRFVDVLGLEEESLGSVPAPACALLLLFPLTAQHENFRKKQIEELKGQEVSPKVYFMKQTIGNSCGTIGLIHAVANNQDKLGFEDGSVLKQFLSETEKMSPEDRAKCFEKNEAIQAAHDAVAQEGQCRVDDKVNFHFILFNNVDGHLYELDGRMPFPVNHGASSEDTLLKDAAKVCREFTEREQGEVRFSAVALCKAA
The experiment in a line: UCHL1 biochemical IC50 assay (fluorescence polarisation). The conditions noted are these: 30 min enzyme/compound pre-incubation at room temp, read after 2 hr incubation, read-out: Activity range (UCHL1 biochemical IC50 assay). A digest of the protocol: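 FLAG-UCHL1 purified from transfected HEK293T cells was preincubated 30 min at room temperature with compound (8 points, 100–0.03 μM final) in Tris pH 7.5 buffer with Tween 20, BSA and beta-mercaptoethanol. Reaction started with 50 nM TAMRA-peptide–ubiquitin isopeptide substrate; fluorescence polarisation (ex 540/em 590 nm) read at once and after 2 h.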

For orientation: IC50 means the concentration needed to halve the response being measured. Consider `Cn1nccc1-c1ccc2nc(NC(=O)[C@H]3CCN(C#N)C3)sc2c1` [Example 123, (S)-1-cyano-N-(6-(1-methyl-1H-pyrazol-5-yl)benzo[d]thiazol-2-yl)pyrrolidine-3-carboxamide], for which the IC50 is less than 1 µM.
To `Cn1cc(-c2ccc3nc(NC(=O)[C@H]4CCN(C#N)C4)sc3c2)cn1` [Example 124, (S)-1-cyano-N-(6-(1-methyl-1H-pyrazol-4-yl)benzo[d]thiazol-2-yl)pyrrolidine-3-carboxamide] belongs less than 1 µM; to `Cc1n[nH]c(C)c1-c1ccc2nc(NC(=O)[C@H]3CCN(C#N)C3)sc2c1` [Example 125, (S)-1-cyano-N-(6-(3,5-dimethyl-1H-pyrazol-4-yl)benzo[d]thiazol-1-2-yl)pyrrolidine-3-carboxamide], less than 1 µM.
Take `Cc1oncc1-c1ccc2nc(NC(=O)[C@H]3CCN(C#N)C3)sc2c1` [Example 126, (S)-1-cyano-N-(6-(5-methylisoxazol-4-yl)benzo[d]thiazol-2-yl)pyrrolidine-3-carboxamide]: the half-maximal inhibitory concentration (IC50) was less than 1 µM.
For the molecule `Cc1noc(C)c1-c1ccn2cc(NC(=O)[C@H]3CCN(C#N)C3)nc2c1` [Example 127, (S)-1-cyano-N-(7-(3,5-dimethylisoxazol-4-yl)imidazo[1,2-a]pyridin-2-yl)pyrrolidine-3-carboxamide], the IC50 was less than 1 µM.
Consider `Cc1noc(C)c1-c1ccc2nc(NC(=O)[C@H]3CCN(C#N)C3)cn2c1` [Example 128, (S)-1-cyano-N-(6-(3,5-dimethylisoxazol-4-yl)imidazo[1,2-a]pyridin-2-yl)pyrrolidine-3-carboxamide], for which the IC50 was less than 1 µM.
For `N#CN1CC[C@H](C(=O)Nc2cn3cc(C4CC4)ccc3n2)C1` [Example 129, (S)-1-cyano-N-(6-cyclopropylimidazo[1,2-a]pyridin-2-yl)pyrrolidine-3-carboxamide], the IC50 is less than 1 µM.
For `N#CN1CCC(C(=O)Nc2nc3ccc(C4CC4)cc3s2)C1` (stereo not shown) [Example 130, 1-cyan-N-(6-cyclopropylbenzo[d]thiazol-2-yl)pyrrolidine-3-carboxamide], the IC50 is less than 1 µM.
On to `COc1cc(-c2ccc3nc(NC(=O)[C@H]4CCN(C#N)C4)cn3c2)c(OC)nn1` [Example 131, (S)-1-cyano-N-(6-(3,6-dimethoxypyridazin-4-yl)imidazo[1,2-a]pyridin-2-yl)pyrrolidine-3-carboxamide], for which the half-inhibitory concentration (IC50) was less than 1 µM.
In the case of `COc1cc(-c2ccc3nc(NC(=O)[C@H]4CCN(C#N)C4)sc3c2)c(OC)nn1` [Example 132, (S)-1-cyano-N-(6-(3,6-dimethoxypyridazin-4-yl)benzo[d]thiazol-2-yl)pyrrolidine-3-carboxamide], the IC50 is less than 1 µM.
To `Cc1noc(C)c1-c1ccc2nc(NC(=O)[C@H]3CCN(C#N)[C@H]3C)sc2c1` [Example 133, (2S,3S)-1-cyano-N-(6-(3,5-dimethylisoxazol-4-yl)benzo[d]thiazol-2-yl)-2-methyl-pyrrolidine-3-carboxamide] belongs less than 1 µM; to `Cc1ccc(-c2ccc(NC(=O)C3CCN(C#N)C3)nc2)cc1` (stereo not shown) [Example 134, 1-cyano-N-(5-(p-tolyl)pyridin-2-yl)pyrrolidine-3-carboxamide], 1 to 10 µM.
For `Cc1cccc(-c2ccc(NC(=O)C3CCN(C#N)C3)nc2)c1` (stereo not shown) [Example 135, 1-cyano-N-(5-(m-tolyl)pyridin-2-yl)pyrrolidine-3-carboxamide], the IC50 was in the range of 1 to 10 µM.
To `Cc1ccccc1-c1ccc(NC(=O)C2CCN(C#N)C2)nc1` (stereo not shown) [Example 136, 1-cyano-N-(5-(o-tolyl)pyridin-2-yl)pyrrolidine-3-carboxamide] belongs 1 to 10 µM; to `Cc1noc(C)c1-c1ccc2nc(NC(=O)[C@H]3CCN(C#N)C3)cn2c1C` [Example 137, (S)-1-cyano-N-(6-(3,5-dimethylisoxazol-4-yl)-5-methylimidazo[1,2-a]pyridin-2-yl)pyrrolidine-3-carboxamide], less than 1 µM; to `Cc1noc(C)c1-c1ccc2nc(NC(=O)[C@H]3CCN(C#N)C3)sc2c1C` [Example 138, (S)-1-cyano-N-(6-(3,5-dimethylisoxazol-4-yl)-7-methylbenzo[d]thiazol-2-yl)pyrrolidine-3-carboxamide], less than 1 µM.
With `Cc1c(-c2cnn(C)c2)ccc2nc(NC(=O)[C@H]3CCN(C#N)C3)sc12` [Example 139, (S)-1-cyano-N-(7-methyl-6-(1-methyl-1H-pyrazol-4-yl)benzo[d]thiazol-2-yl)pyrrolidine-3-carboxamide], the IC50 was less than 1 µM.
For `N#CN1CCC(C(=O)Nc2ncc(CN3CCOCC3)s2)C1` (stereo not shown) [Example 140, 1-cyano-N-(5-(morpholinomethyl)thiazol-2-yl)pyrrolidine-3-carboxamide] the value was less than 1 µM; for `N#CN1CCC(C(=O)Nc2ncc(CN3CCCC3)s2)C1` (stereo not shown) [Example 141, 1-cyano-N-(5-(pyrrolidin-1-ylmethyl)thiazol-2-yl)pyrrolidine-3-carboxamide], 1 to 10 µM.
On to `CC1CN(Cc2cnc(NC(=O)[C@H]3CCN(C#N)C3)s2)CC(C)O1` (stereo partly drawn) [Example 142, (3S)-1-cyano-N-(5-((2,6-dimethylmorpholino)methyl)thiazol-2-yl)pyrrolidine-3-carboxamide], for which the IC50 was in the range of 1 to 10 µM.
Consider `COC[C@H]1CCCN1Cc1cnc(NC(=O)[C@H]2CCN(C#N)C2)s1` [Example 143, (S)-1-cyano-N-(5-(((R)-2-(methoxymethyl)pyrrolidin-1-yl)methyl)thiazol-2-yl)pyrrolidine-3-carboxamide], for which the IC50 is 1 to 10 µM.
With `COC[C@@H]1CCCN1Cc1cnc(NC(=O)[C@H]2CCN(C#N)C2)s1` [Example 144, (S)-1-cyano-N-(5-(((S)-2-(methoxymethyl)pyrrolidin-1-yl)methyl)thiazol-2-yl)pyrrolidine-3-carboxamide], the IC50 is 1 to 10 µM.
Take `COC[C@H]1CCCN1Cc1cnc(NC(=O)[C@H]2CCN(C#N)[C@H]2C)s1` [Example 145, (2S,3S)-1-cyano-N-(5-(((R)-2-(methoxymethyl)pyrrolidin-1-yl)methyl)thiazol-2-yl)-2-methylpyrrolidine-3-carboxamide]: the IC50 lay in the range of 1 to 10 µM.
Regarding `N#CN1CC[C@H](C(=O)Nc2cn(Cc3ccccc3)cn2)C1` [Example 146, (S)—N-(1-benzyl-1H-imidazol-4-yl)-1-cyanopyrrolidine-3-carboxamide], the IC50 was less than 1 µM.
In the case of `N#CN1CC[C@H](C(=O)Nc2cn(CCc3ccccc3)cn2)C1` [Example 147, (S)-1-cyano-N-(1-phenethyl-1H-imidazol-4-yl)pyrrolidine-3-carboxamide], the IC50 is less than 1 µM.
In the case of `CC(C)Cn1cnc(NC(=O)[C@H]2CCN(C#N)C2)c1` [Example 148, (S)-1-cyano-N-(1-isobutyl-1H-imidazol-4-yl)pyrrolidine-3-carboxamide], the IC50 lay within 1 to 10 µM.
As to `C[C@H]1[C@@H](C(=O)Nc2cn(Cc3ccccc3)cn2)CCN1C#N` [Example 149, (2S,3S)—N-(1-benzyl-1H-imidazol-4-yl)-1-cyano-2-methylpyrrolidine-3-carboxamide], the IC50 was less than 1 µM.
Turning to `N#CN1CC[C@H](C(=O)Nc2cn(-c3ccc(F)cc3)cn2)C1` [Example 150, (S)-1-cyano-N-(1-(4-fluorophenyl)-1H-imidazol-4-yl)pyrrolidine-3-Carboxamide], the IC50 is less than 1 µM.
With `N#CN1CC[C@H](C(=O)Nc2cn(-c3cccc(F)c3)cn2)C1` [Example 151, (S)-1-cyano-N-(1-(3-fluorophenyl)-1H-imidazol-4-yl)pyrrolidine-3-carboxamide], the IC50 is less than 1 µM.
For `N#CN1CC[C@H](C(=O)Nc2cn(-c3ccccc3F)cn2)C1` [Example 152, (S)-1-cyano-N-(1-(2-fluorophenyl)-1H-imidazol-4-yl)pyrrolidine-3-carboxamide], the IC50 is less than 1 µM.
Regarding `N#CN1CC[C@H](C(=O)Nc2cn(-c3ccc(C(F)(F)F)cc3)cn2)C1` [Example 153, (S)-1-cyano-N-(1-(4-(trifluoromethyl)phenyl)-1H-imidazol-4-yl)pyrrolidine-3-carboxamide], the IC50 is less than 1 µM.
On to `N#CN1CC[C@H](C(=O)Nc2cn(-c3cccc(C(F)(F)F)c3)cn2)C1` [Example 154, (S)-1-cyano-N-(1-(3-(trifluoromethyl)phenyl)-1H-imidazol-4-yl)pyrrolidine-3-carboxamide], for which the concentration for half-maximal inhibition (IC50) was less than 1 µM.
To `CNC(=O)c1ccc(-n2cnc(NC(=O)[C@H]3CCN(C#N)C3)c2)cc1` [Example 155, (S)-1-cyano-N-(1-(4-(methylcarbamoyl)phenyl)-1H-imidazol-4-yl)pyrrolidine-3-carboxamide] belongs less than 1 µM; to `CNC(=O)c1cccc(-n2cnc(NC(=O)[C@H]3CCN(C#N)C3)c2)c1` [Example 156, (S)-1-cyano-N-(1-(3-(methylcarbamoyl)phenyl)-1H-imidazol-4-yl)pyrrolidine-3-carboxamide], less than 1 µM.
As for `CNC(=O)c1ccccc1-n1cnc(NC(=O)[C@H]2CCN(C#N)C2)c1` [Example 157, (S)-1-cyano-N-(1-(2-(methylcarbamoyl)phenyl)-1H-imidazol-4-yl)pyrrolidine-3-carboxamide], the IC50 fell in the range of 1 to 10 µM.
In the case of `COCCNC(=O)c1ccc(-n2cnc(NC(=O)[C@H]3CCN(C#N)C3)c2)cc1` [Example 158, (S)-1-cyano-N-(1-(4-((2-methoxyethyl)carbamoyl)phenyl)-1H-imidazol-4-yl)pyrrolidine-3-carboxamide], the IC50 is less than 1 µM.
For the molecule `COc1ccc(-n2cnc(NC(=O)[C@H]3CCN(C#N)C3)c2)cc1` [Example 159, (S)-1-cyano-N-(1-(4-methoxyphenyl)-1H-imidazol-4-yl)pyrrolidine-3-carboxamide], the IC50 is less than 1 µM.
